# Test results reported in patent US5719303A, “Phosphonic acid derivatives” (Eisai Co., Ltd., priority 1993, dated 1998).
# Target: T1, squalene synthetase (Rattus norvegicus, UniProt Q02769)
# T1 construct: 50 μl of a 1 mg/ml rat liver microsome; from tissue; host or cells: liver microsomes of Sprague-Dawley rats fed 2% cholestyramine; 105000 g fraction
# T1 sequence (Q02769 1-416): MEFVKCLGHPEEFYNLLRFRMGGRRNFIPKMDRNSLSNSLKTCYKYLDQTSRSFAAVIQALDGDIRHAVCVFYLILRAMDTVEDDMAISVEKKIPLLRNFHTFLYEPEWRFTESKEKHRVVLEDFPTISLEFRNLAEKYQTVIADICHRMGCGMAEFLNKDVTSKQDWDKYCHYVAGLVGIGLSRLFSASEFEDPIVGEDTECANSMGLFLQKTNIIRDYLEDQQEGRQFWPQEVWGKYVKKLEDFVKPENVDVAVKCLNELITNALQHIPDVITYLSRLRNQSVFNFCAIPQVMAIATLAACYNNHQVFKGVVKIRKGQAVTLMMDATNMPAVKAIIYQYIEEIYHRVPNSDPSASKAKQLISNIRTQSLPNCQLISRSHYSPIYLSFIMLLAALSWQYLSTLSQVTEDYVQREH
# Assay: Inhibitory activity against squalene synthetase (3H-FPP to squalene, rat liver microsome)
# Assay type: biochemical
# Conditions: 3H-FPP substrate, 37° C., 10 minutes, pH 7.4
# Protocol: 50 μl of 500 mM Tris-HCl (pH: 7.4), 50 μl of 10 mM magnesium chloride, 50 μl of 2 mM potassium fluoride, 50 μl of 10 mM nicotinamide adenine dinucleotide phosphate (hereinafter abbreviated to "NADPH"), 100 μl of a sample solution of five-fold concentration, 100 μl of distilled water and 50 μl of a 1 mg/ml rat liver microsome were put in a centrifuge tube, with the liver microsome being one prepared by the method which will be described below.
# The above mixture was preincubated at 37° C. for 5 minutes. 50 μl of 100 μM 3H-FPP (10 mCi/mmol, NEN) was added to the resulting mixture to initiate a reaction. After 10 minutes, 1 ml of 4N sodium hydroxide was added to the mixture to stop the reaction, followed by the addition of 1 ml of ethanol. The obtained mixture was incubated at 80° C. for 12 hours, cooled with ice and extracted with petroleum ether twice. The petroleum ether phases were separated from the aqueous phase and evaporated to dryness with nitrogen gas. The residue was dissolved in 25 μl of chloroform containing squalene, farnesol and cholesterol as markers. The obtained solution was applied to TLC (Empore: 412001-1) and developed with benzene/isopropyl ether (1:1) for 6 minutes and with heptane for 15 minutes.
# The band of squalene was cut from the plate and examined for radioactivity with a liquid scintillation counter to determine the inhibitory ratio.
# The rate liver microsome used in the above experiment was prepared as follows.
# A Sqraque-Dawley rat was fed with a feed containing 2% of cholestyramine (Dowex 1-X2) for at least 5 days to enhance the cholesterol biosynthesis activity. At midnight (0:00), the liver was extirpated from the rat. A 1.15 (w/v) % potassium chloride solution was circulated in the blood vessel of the liver extirpated under cooling with ice to remove the blood. The resulting liver was cut into small pieces with scissors, homogenized with a Teflon homogenizer of loose fitting type and subjected to centrifugation (700 g, 10 minutes). The obtained supernatant was further subjected to centrifugation (15000 g, 20 minutes) and the obtained supernatant was subjected to centrifugation (105000 g, 60 minutes) to be separated into a microsome fraction and a supernatant. This microsome fraction was washed with a 0.1M potassium phosphate buffer (pH: 7.4) once, and suspended in the same buffer in a liver concentration of 3 g/ml. The obtained suspension was examined for protein content by the Lowry method and the protein content of the suspension was adjusted to 20 mg/ml.
row,SMILES,IC50 [nM]
1,"C/C(=C\CN(C)CC(O)CC(C(=O)O)P(=O)(O)O)CCc1ccc2ccccc2c1 (mixture of isomers) [Example 19, Trisodium 1-carboxy-4-[N-methyl-3-methyl-5-(2-naphthyl)-2-pentenylamino]-3-hydroxybutylphosphonate (diastereomeric mixture)]",170
2,O=P(O)(O)C(CC1CCN(Cc2cccc(/C=C/c3ccccc3)c2)CC1)P(=O)(O)O [Example 209],1.3
3,CC(C)=CCC/C(C)=C/CC/C(C)=C/c1cccc(C(P(=O)(O)O)P(=O)(O)O)c1 [Example 230],3
4,"COc1ccc(C(=O)C2CCN(CCCC(P(=O)(O)O)P(=O)(O)O)CC2)cc1 [Example 16, 4-[4(4-Methoxybenzoyl)piperidino]butylidene-1,1-diphosphonic acid]",0.28
5,Cc1c(-c2ccccc2)ncn1CCCNC(P(=O)(O)O)P(=O)(O)O [Example 210],4
6,CC(=O)c1cccc(/C(C)=C/CN(C)CCCC(P(=O)(O)O)P(=O)(O)O)c1 [Example 238],0.54
7,COc1ccccc1C(C)=CCN(C)CCCC(P(=O)(O)O)P(=O)(O)O [Example 114],2.4
8,"CC(C)=CCC/C(C)=C/CN(C)C(=O)OCCCC(P(=O)(O)O)P(=O)(O)O [Example 15, Tetrasodium 4-[(E)-N-(3,7-dimethylocta-2,6-dienyl)-N-methylcarbamoyloxybutylidene-1,1-diphosphonate]",0.81
9,CC(O)c1ccc(-c2ccc(CN(C)CCCC(P(=O)(O)O)P(=O)(O)O)s2)cc1 (stereo not drawn) [Example 42],1.8
10,CC(=O)c1ccc(Cc2ccc(CN(C)CCCC(P(=O)(O)O)P(=O)(O)O)cc2)cc1 [Example 246],3.1
11,C/C(=C\CC(P(=O)(O)O)P(=O)(O)O)CCc1ccc2ccccc2c1 [Example 223],1
12,CN(CCCC(P(=O)(O)O)P(=O)(O)O)Cc1ccc(-c2cccnc2)s1 [Example 41],5
13,"CC(O)c1ccc(Cc2ccc(CN(C)CCCC(P(=O)(O)O)P(=O)(O)O)cc2)cc1 (stereo not drawn) [Example 14, Tetrasodium 4[N-methyl-4-[4-(1-hydroxyethyl)benzyl]benzylamino]butylidene-1-diphosphonate]",2.4
14,CN(CCCC(P(=O)(O)O)P(=O)(O)O)Cc1ccc(C(=O)c2ccccc2)c(O)c1 [Example 201],0.91
15,CN(CCCC(P(=O)(O)O)P(=O)(O)O)Cc1ccc(-c2ccccc2)cc1 [Example 32],1.4
